Results reported in patent US20190269666A1, “COMBINATION THERAPY WITH MERESTINIB AND ANTI-PD-L1 OR ANTI-PD-1 INHIBITORS FOR USE IN THE TREATMENT OF CANCER” (Eli Lilly and Company, priority 2016, published 2019).

Columns and labels:
phospho-AXL (p-AXL) = biological target: T1, phospho-AXL (p-AXL) (Mus musculus, UniProt Q00993); assay: Mouse phospho-RTK array in CT26 cells; format: cell-based; conditions: 500 nM, CT26 cells in vitro
T1 construct: CT26 cells also express high level of phospho-AXL (p-AXL) by western blot analysis; endogenous in cells; host or cells: CT26 (mouse colorectal cancer line)
Procedure: CT26 CRC tumor cells harbor KRAS activating mutation G12D. […] CT26 cells also express high level of phospho-AXL (p-AXL) by western blot analysis and merestinib is shown to decrease p-AXL in vitro by more than 60% at a concentration of 500 nM in the mouse phospho-RTK array, but show very little effect on CT26 cell proliferation (IC50>20 μM).

immune cells = assay: Flow cytometry analysis of immune cells in spleens and tumors; format: in vivo, mouse; conditions: compared to concurrent combination or vehicle control
Procedure: Spleens and tumors are collected from a subset of animals on the indicated study day(s) and processed for FACS analysis by homogenizing tissues through a tissue strainer to prepare a single cell suspension in culture medium. Single cell suspensions are then stained with fluorescently-labeled antibodies to identify immune markers including: CD3, CD4, CD8, CD11b, CD19, CD45, FoxP3, PD-L1, F4/80 and a fixable viability dye. Cells are analyzed using a BD LSR II flow cytometer. Data are collected and analyzed using Flowjo (Tree Star, Inc.) to measure the percentage of total live lymphocytes (Live, CD45+) in each tissue. Immune cell subsets are then measured as a percentage of CD45 cells, or as a percentage of the immediate parent population.

[1] = test system: EMT6 syngeneic mouse mammary carcinoma tumor model; assay: EMT6 syngeneic mouse mammary carcinoma tumor model; format: in vivo
Text: A syngeneic mouse tumor model is used to evaluate potential combination effect of merestinib and anti-PD-L1 antibody in the EMT6 model (Rockwell, S C, Kallman, R F, Fajardo, L F. Characteristics of a serially transplanted mouse mammary tumor and its tissue-culture-adpated derivative. J Nat Cancer Institute. 1972, 49:735-749). Anti-PD-L1 antibody surrogate (178G7, LSN3370181) (Eppihimer et al. Microcirculation 2002:9(2):133) is used in the mouse study.
Female BALB/c mice (18-20 gm) from Envigo (Harlan Laboratories) are used for this study. Food and water are available ad libitum. Animals are acclimated for at least one week prior to any experimental manipulation. The study is performed in accordance with AALAC accredited institutional guidelines.
Merestinib is formulated as a solution in 10% PEG 400 in 90% (20% Captisol in H2O) once weekly. Anti-PD-L1 antibody (LSN3370181) is formulated in PBS (phosphate buffered saline).
EMT6 cells (from internal in vivo pharmacology cell culture group lot EMT6-3184882) are used for implantation. Approximately 5×10^5 cells in HBSS are implanted subcutaneously into the right hind flank of the animal under anesthesia. Prior to commencing drug administration, animals are randomized to treatment groups based on body weight.
There are 4 arms in this study with 15 animals per group: 1) vehicle control; 2) merestinib 12 mg/kg QD×21, PO; 3) LSN3370181 (anti-PD-L1) 0.5 mg/mouse once weekly for 3 weeks via IP; 4) combination merestinib+anti-PD-L1 antibody; combination therapies follow the same dosing schedule as the monotherapies. Treatment is initiated on Day 6 post tumor cell implantation and continued for 21 days (final dose administered on Day 26). Tumor volumes and body weight are measured bi-weekly. Tumor volume is estimated by using the formula: v=l×w^2×0.536 where l=larger of measured diameter and w=smaller of perpendicular diameter. Animals are sacrificed using CO2 and cervical dislocation.
On Day 20 post tumor cell implant, 5 animals from each group are taken down for harvesting of spleens and tumors for mechanism of action (MOA) studies (FACs analysis, gene expression). The remaining animals continue with treatment as described above. At the end of the dosing period (Day 27 post tumor cell implant), animals are observed for tumor growth for 43 days. Animals are removed from study when tumor burden reached or exceeded 2500 mm^3. To assess immune memory, on Day 70 post tumor cell implant, animals that remained on study (complete responders and partial responders) are rechallenged with new implant of EMT6 cells on the contralateral side and observed for tumor growth for 15 days.
Tumor volume is transformed to the log scale to equalize variance across time and treatment groups. The log volume data are analyzed with a two-way repeated measures analysis of variance by time and treatment using the MIXED procedures in SAS software (Version 9.3). The correlation model for the repeated measures is spatial power. Treated groups are compared to the control group at each time point. The MIXED procedure is also used separately for each treatment group to calculate least squares means and standard errors at each time point. Both analyses account for the autocorrelation within each animal and the loss of data that occurs when animals are removed or lost before end of study.
Bayesian ordinal logistic regression analysis is used to obtain the posterior probability of the combination treatment effect for synergy, additivity or antagonism was conducted on Day 69 for this study. Each animal was classified into one of 3 response categories, based on its Day 69 tumor volume and by comparison to the vehicle data: I) Non-responder (NR), II) Partial Responder (PR), III) Complete Responder (CR). CR is defined by tumor volume […] at Day 69. NR is defined as unperturbed exponential growth, similar to vehicle animals. […]

T1 sequence (Q00993 19-888): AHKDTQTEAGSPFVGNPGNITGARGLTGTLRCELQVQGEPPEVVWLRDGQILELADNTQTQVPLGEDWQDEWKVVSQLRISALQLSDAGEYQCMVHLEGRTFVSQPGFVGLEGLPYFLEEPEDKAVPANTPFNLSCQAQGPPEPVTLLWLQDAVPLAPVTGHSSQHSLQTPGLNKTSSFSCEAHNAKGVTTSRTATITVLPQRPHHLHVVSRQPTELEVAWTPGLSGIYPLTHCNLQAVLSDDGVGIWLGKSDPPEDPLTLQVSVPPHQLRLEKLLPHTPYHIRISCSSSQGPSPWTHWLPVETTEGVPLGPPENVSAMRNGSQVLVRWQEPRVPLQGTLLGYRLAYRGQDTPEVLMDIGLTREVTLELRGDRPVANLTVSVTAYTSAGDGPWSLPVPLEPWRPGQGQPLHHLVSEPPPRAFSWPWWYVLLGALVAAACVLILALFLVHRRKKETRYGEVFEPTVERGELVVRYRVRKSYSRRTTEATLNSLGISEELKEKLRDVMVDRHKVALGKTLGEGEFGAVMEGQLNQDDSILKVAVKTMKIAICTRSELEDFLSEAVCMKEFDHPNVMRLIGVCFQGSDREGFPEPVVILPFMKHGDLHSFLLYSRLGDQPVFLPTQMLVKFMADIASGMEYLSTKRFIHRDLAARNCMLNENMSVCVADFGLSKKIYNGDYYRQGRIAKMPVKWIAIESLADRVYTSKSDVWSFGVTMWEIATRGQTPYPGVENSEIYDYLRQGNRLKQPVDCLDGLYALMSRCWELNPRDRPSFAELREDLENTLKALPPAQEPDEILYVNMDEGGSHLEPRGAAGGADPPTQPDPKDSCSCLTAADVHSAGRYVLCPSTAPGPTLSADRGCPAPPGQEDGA

SMILES: Cc1ccc(C(=O)Nc2ccc(Oc3cc4cnn(C)c4cc3-c3cn[nH]c3)c(F)c2)c(=O)n1-c1ccc(F)cc1 [merestinib, N-(3-fluoro-4-(1-methyl-6-(1H-pyrazol-4-yl)-1H-indazol-5-yloxy)phenyl)-1-(4-fluorophenyl)-6-methyl-2-oxo-1,2-dihydropyridine-3-carboxamide]
- decrease of p-AXL (phospho-AXL (p-AXL)): more than 60%
- change in immune cells by flow cytometry (immune cells): no significant change
- Regression (%) ([1]; Day 31): No tumor regression
- T/C % ([1]; Day 31): 35.2%
- Day 69 Treatment Responders NR (Non-responder) ([1]; animals of 10/group): 10
- Day 69 Treatment Responders PR (Partial Responder) ([1]; animals of 10/group): 0
- Day 69 Treatment Responders CR (Complete Responder) ([1]; animals of 10/group, tumor volume ≤25 mm^3): 0
- single agent anti-tumor activity ([1]; mouse, in vivo): weak single agent anti-tumor activity
